{
  "source": "PubChem BioAssay AID588635",
  "about": "(Johns Hopkins Ion Channel Center, 2011)",
  "biological_target": "Potassium voltage-gated channel subfamily KQT member 2 (Rattus norvegicus) (UniProt O88943)",
  "sequence (O88943 whole entry, looked up)": "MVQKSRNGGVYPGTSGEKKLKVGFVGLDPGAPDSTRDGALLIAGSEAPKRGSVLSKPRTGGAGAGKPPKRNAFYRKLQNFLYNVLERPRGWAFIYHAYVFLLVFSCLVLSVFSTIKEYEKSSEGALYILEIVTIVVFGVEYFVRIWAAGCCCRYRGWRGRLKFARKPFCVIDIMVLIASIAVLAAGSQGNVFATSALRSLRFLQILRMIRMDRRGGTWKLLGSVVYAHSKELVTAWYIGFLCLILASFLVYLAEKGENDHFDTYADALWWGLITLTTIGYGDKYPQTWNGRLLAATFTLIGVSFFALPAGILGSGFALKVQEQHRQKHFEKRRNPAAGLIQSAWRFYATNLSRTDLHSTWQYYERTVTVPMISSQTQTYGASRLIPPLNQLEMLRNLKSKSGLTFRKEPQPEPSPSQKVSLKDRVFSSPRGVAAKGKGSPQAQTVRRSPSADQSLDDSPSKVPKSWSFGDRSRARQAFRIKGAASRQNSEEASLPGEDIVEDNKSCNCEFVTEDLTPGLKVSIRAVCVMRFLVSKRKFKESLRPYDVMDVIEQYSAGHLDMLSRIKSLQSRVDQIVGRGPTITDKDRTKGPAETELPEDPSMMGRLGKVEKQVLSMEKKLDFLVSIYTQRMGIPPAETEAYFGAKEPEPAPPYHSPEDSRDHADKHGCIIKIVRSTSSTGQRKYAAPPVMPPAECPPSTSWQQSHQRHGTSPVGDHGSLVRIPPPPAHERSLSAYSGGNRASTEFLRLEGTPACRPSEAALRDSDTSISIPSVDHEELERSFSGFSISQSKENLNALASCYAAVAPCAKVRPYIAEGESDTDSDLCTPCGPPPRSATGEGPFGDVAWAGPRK",
  "assay": "PubChem AID 588635",
  "conditions": "KCNQ2-CHO cells, manual whole-cell patch clamp current; at 0.1 µM; stronger effect = higher value",
  "data": [
    {"smiles": "CC[C@H](C(=O)Nc1ccccc1N1CCCC1)c1ccccc1", "values": [
      {"measurement": "inhibition", "result": 83.4, "unit": "%"}
    ]}
  ]
}
